Patent US20250268165A1, “METHOD FOR PRODUCING HAPLOID AND DOUBLED HAPLOID SUNFLOWER PLANTS BY MICROSPORE CULTURE” (KWS SAAT SE & Co. KGaA, priority 2022, published 2025)

Legend:
[1] = system: isolated microspores of Helianthus annuus, 007 Genotype; experiment: Callus induction from isolated microspores with different 2,4-D concentrations in induction media II (Example 4.3); assay type: cell-based
Protocol: Top row: arrows indicate where embryos are located (magnification). Bottom row: corresponding petri dish.
(§1) Solution of microspore density of 80.000 microspores per ml are centrifuged for 10 min at 200 g and supernatant is decanted. Induction media I (see, for example, Table 3.4) is added to the remaining microspores and divided into plastic tubes. Histone deacetylase inhibitor (HDACi) and colchicine are added to each tube and microspore solutions are stored at 26° C. for 2 days. If the HDACi trichostatin A (TSA) is used, it is dissolved in dimethylsulfoxide (DMSO) to a final concentration of between 1M and 10 μM, preferably 100 nM to 10 μM, more preferably 1 μM to 10 μM, depending on the genotype and the plant donor sources. If colchicine is used, it is dissolved in water to a final concentration of between 1 mg and 500 mg, preferably 10 mg to 200 mg, more preferably 50 mg to 100 mg, depending on the genotype and the plant donor sources. The HDACi and the chromosome doubling agent are removed by centrifugation for 10 min, 200 g. Supernatant is decanted, corresponding amount of induction media I is added, and microspores resuspended. Tubes are incubated at 26° C. in the dark for several days.
(§2) Thereafter, microspore solutions are centrifuged for 10 min at 200 g and supernatant is decanted. Corresponding amounts of induction media II with different 2,4-D concentrations is added according to the treatments (see, for example, Table 3.5) and the microspore solution is plated in petri dishes and placed at 26° C. for callus induction.
Depending on tissue culture length, and the tissue culture system, at least one antibiotic can be added to Incubation Medium II, such as carbenicillin, penicillin or timentin. One to two weeks after isolation, the first microspore nuclear division can be observed (DAPI staining). Callus structures can be seen by eye after approximately three weeks after isolation.

[2] = system: sunflower microspore derived calluses; experiment: Plant regeneration: shoots regenerated per callus unit after callus induction with auxin analogs (Example 4.2); assay type: cell-based, Helianthus annuus; details: auxin analog used during callus induction (FIG. 8B)
Protocol: as §2, with “auxin and auxin analogs” for “2,4-D concentrations”, “3.3)” for “3.5)”, “[…]” for “26° C.”, “induction. Abbreviations used in Table 3.3: 3.5ME=3,5-dimethylphenoxyacetic acid; PHAA=Phenoxyacetic acid; 4-CPA or 4CIPA=p-Chlorophenoxyacetic acid.” for “induction.”
Callus is removed from liquid media and transferred to regeneration media (see, for example, Table 4) with 1 mg/L BAP and grown at 26° C. in the light until plant regeneration is observed, approximately 2 weeks after transfer (FIG. 4)

[3] = system: isolated microspores of Helianthus annuus; experiment: Callus induction from isolated microspores with auxin analogs in induction media II (Example 4.2); assay type: cell-based; details: 1 mg/L (FIG. 8A), control with 2,4-D
Protocol: as §1, with “example, Table 3.2) is added” for “example, Table 3.4) is added”, “of between 1 nM and 10” for “of between 1M and 10”, “mg and 300 mg, preferably” for “mg and 500 mg, preferably”, “donor sources. Another antimitotic agent, e.g., oryzalin and/or trifluralin, or any other chromosome doubling agent may be used as well. The HDACi” for “donor sources. The HDACi”, “microspores resuspended. Usually, an auxin or a (synthetic) analog thereof will usually be applied in a concentration of about 0.05 to about 3 mg/L. Tubes are” for “microspores resuspended. Tubes are”, “several days. […]” for “several days.”

[4] = system: microspore derived sunflower shoots; experiment: Plant rooting of microspore derived shoots in rooting media (Example 5.2); assay type: in vivo, Helianthus annuus; details: rooting media (MS), 24° C. in the light, approximately 2 weeks after transfer; auxin 0.5 mg/L
Protocol: Shoots are transferred to growing/rooting medium (see, for example, Table 5) with or without one auxin (in the example PAA (phenylacetic acid) or IBA were used) and grown at 24° C. in the light until root formation is observed, approximately 2 weeks after transfer (FIG. 10).

With `O=C(O)COc1ccc(Cl)cc1Cl` [2,4-D, 2,4-Dichlorophenoxyacetic acid] the “Generation of microspore-derived embryos” value ([1]; 0.5, 0.2, 0.1 mg/L 2,4-D and Ctrl 1 mg/L 2,4-D) was “observed in all treatments”, the “Induction of microspore division and callus formation” value ([1]; 0.5, 0.2, 0.1 mg/L 2,4-D and Ctrl 1 mg/L in induction media II, 007 Genotype (FIG. 9)) was “able to induce microspore division and callus formation” and the “Callus formation of the treatments compared with control” value ([1]; 0.5, 0.2, 0.1 mg/L 2,4-D versus Ctrl 1 mg/L 2,4-D) was “did not decreased or enhanced callus formation”.
`Cc1cc(C)cc(OCC(=O)O)c1` [3.5ME, 3,5-dimethylphenoxyacetic acid] was tested, and the “Regeneration: number of shoots regenerated per callus unit in comparison to control” value [2] was “tendency to increase regeneration”.
In the case of `O=C(O)COc1ccc(Cl)cc1` [4CIPA/4-CPA, p-Chlorophenoxyacetic acid], the “Callus quantity (callus number) in comparison to control” value [3] is reported as “tendency to increase callus quantity” and the “Regeneration: number of shoots regenerated per callus unit in comparison to control” value [2] is reported as “tendency to increase regeneration”.
For `O=C(O)CCCc1c[nH]c2ccccc12` [IBA, indole-3-butyric acid], the “Cultivated plants showing root formation” value [4] was 68%.
